This note sets out measurements from paper PMC7522027 (Disease Models & Mechanisms, 2020).

One assay deals with T1, BMPR1A (ALK3) (Homo sapiens, UniProt P36894).
T1 construct: purchased ProQinase GmbH (Freiburg, Germany); host or cells: bacteria (so in the source)
As to the kind of experiment: radiometric protein kinase assay, ALK3. The class given is biochemical. To be noted: [ATP] = 0.3μM; Fig. 7F.

Another assay has as its target T2, ACV-R1 (ALK2) (Homo sapiens, UniProt Q04771).
T2 construct: purchased ProQinase GmbH (Freiburg, Germany); host or cells: bacteria (so in the source)
T2 sequence (Q04771 21-509): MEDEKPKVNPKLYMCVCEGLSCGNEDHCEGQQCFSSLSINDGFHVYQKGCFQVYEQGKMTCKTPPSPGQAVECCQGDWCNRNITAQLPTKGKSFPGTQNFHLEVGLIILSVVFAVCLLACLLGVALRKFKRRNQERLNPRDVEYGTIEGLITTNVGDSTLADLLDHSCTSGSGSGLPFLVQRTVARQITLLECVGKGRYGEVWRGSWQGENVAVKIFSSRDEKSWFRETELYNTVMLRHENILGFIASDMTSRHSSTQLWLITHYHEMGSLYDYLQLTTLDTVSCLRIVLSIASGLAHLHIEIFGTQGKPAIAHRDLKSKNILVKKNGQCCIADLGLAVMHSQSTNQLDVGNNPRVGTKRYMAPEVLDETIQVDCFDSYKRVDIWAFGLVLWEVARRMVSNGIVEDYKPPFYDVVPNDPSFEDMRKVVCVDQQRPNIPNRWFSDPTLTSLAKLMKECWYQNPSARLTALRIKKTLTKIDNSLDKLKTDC
As to the kind of experiment: radiometric protein kinase assay, ALK2. The class given is biochemical. To be noted: [ATP] = 3 μM; Fig. 7B.

Another assay deals with T3, ACV-RL1 (ALK1) (Homo sapiens, UniProt P37023).
T3 construct: purchased ProQinase GmbH (Freiburg, Germany); host or cells: bacteria (so in the source)
Description: radiometric protein kinase assay, ALK1. Format: biochemical. To be noted: [ATP] = 1 μM; Fig. 7D.

The target in another assay is T4, MEK (MEK1 wt) (Homo sapiens, UniProt Q02750).
T4 construct: purchased ProQinase GmbH (Freiburg, Germany); host or cells: bacteria (so in the source)
Description: radiometric protein kinase assay, MEK. Format: biochemical. To be noted: [ATP] = 3 μM; Fig. 7H.

The test system of assay [1] is MEK and anaplastic lymphoma kinase (ALK) versus ALK serine/threonine kinases. Description: kinase panel: sensitivity of control kinases relative to ALK serine/threonine kinases. Format: biochemical, human. Particulars: ratio of IC50 values. How it is done:
IC50 values were calculated using Prism 5.04 for Windows (GraphPad, San Diego, CA, USA; www.graphpad.com). The mathematical model used was ‘Sigmoidal response (variable slope)’ with parameters ‘top’ fixed at 100% and ‘bottom’ at 0%. The fitting method used was a least-squares fit.

Assay [2] deals with BMP2-induced SMAD1/5-dependent BRE-luc transcriptional reporter. As to the kind of experiment: BMP2-induced BRE-luc transcriptional reporter assay in HepG2 cells. Particulars: HepG2, BMP2 50 ng/ml; cercosporamide 100 nM to 10 µM, LDN-193189 200 nM. The class given is cell-based, human. How it is done:
For luciferase transcriptional reporter assays, HepG2 cells were seeded in 9-cm plates at ∼60% confluency and transfected with polyethyleneimine (PEI). Twenty-four hours later, the transfected cells were seeded in 24-well plates at ∼60% confluency. Another 24 h later, the cells were serum starved for 6 h. Subsequently the cells were treated with compound or DMSO for 30 min. Thereafter, the cells were stimulated with BMP2 in the presence of compounds (or DMSO) for 16 h (overnight). Subsequently, the cells were washed with PBS and lysed. Luciferase activity was measured using the luciferase reporter assay system from Promega (Leiden, The Netherlands) by a Perkin Elmer luminometer Victor^3 1420. Each DNA transfection mixture was equalized with empty vector when necessary and every experiment was performed in triplicate. β-galactosidase expression construct was co-transfected and β-galactosidase was measured to normalize for differences in transfection efficiency. The BRE-luc reporter construct has been reported previously ([Korchynskyi and ten Dijke, 2002]).

The target of a further assay is T5, caALK1 (Homo sapiens, UniProt P37023, Q201D).
T5 construct: expressed in transfected cells; host or cells: HEK 293T
As to the kind of experiment: caALK1-induced SMAD1/5 phosphorylation in HEK 293T cells. Particulars: cercosporamide 1-10 µM, LDN193189 200 nM. The class given is cell-based. An excerpt:
HepG2 or HEK 293T cells were lysed in Laemmli sample buffer. Proteins were separated by sodium dodecyl sulfate polyacrylamide gel electrophoresis (SDS-PAGE) and transferred onto […] polyvinylidene difluoride (PVDF) membrane (IPVH00010, Merck Millipore). Membranes were blocked using 5% non-fat dry milk in Tris-buffered saline with 0.1% Tween 20 (655204, Merck Millipore) and probed with the respective primary and secondary antibodies. The signal was detected using Clarity™ Western ECL Substrate (1705060, Bio-Rad) and ChemiDoc Imaging System (17001402, Bio-Rad). The antibodies used for immunoblotting were raised against the following proteins: phospho-SMAD1/5/8 ([Persson et al., 1998]; 1:1000), SMAD1 (Cell Signaling Technology, #6944; 1:1000), GAPDH (Merck Millipore, #G8795; 1:5000) and hemagglutinin (HA; Roche, #12CA5; 1:1000).
For experiments with the caALK type I receptor constructs, HEK 293T cells were seeded in 24-well plates at ∼90% confluency and transfected with the DNA expression constructs in the presence of PEI. Thirty hours after transfection, the cells were added to serum-starved medium and treated with compounds for 16 h (overnight). Subsequently, the cells were washed with PBS and lysed in Laemmli sample buffer. […]

pIC50: −log10 of the molar value.

T1 sequence (P36894 24-532): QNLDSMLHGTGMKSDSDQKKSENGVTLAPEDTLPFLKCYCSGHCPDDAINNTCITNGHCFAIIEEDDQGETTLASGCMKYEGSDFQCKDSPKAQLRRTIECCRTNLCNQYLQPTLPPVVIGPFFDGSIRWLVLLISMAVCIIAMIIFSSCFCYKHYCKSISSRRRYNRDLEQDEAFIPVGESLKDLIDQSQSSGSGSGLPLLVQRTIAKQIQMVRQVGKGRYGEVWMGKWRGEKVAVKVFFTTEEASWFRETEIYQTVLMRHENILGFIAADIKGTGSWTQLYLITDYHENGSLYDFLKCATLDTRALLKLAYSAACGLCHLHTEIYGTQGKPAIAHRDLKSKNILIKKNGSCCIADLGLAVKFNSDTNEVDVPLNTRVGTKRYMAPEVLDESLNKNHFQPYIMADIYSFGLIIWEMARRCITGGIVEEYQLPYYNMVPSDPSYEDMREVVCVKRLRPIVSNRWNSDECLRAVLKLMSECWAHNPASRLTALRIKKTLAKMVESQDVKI
T3 sequence (P37023 22-503): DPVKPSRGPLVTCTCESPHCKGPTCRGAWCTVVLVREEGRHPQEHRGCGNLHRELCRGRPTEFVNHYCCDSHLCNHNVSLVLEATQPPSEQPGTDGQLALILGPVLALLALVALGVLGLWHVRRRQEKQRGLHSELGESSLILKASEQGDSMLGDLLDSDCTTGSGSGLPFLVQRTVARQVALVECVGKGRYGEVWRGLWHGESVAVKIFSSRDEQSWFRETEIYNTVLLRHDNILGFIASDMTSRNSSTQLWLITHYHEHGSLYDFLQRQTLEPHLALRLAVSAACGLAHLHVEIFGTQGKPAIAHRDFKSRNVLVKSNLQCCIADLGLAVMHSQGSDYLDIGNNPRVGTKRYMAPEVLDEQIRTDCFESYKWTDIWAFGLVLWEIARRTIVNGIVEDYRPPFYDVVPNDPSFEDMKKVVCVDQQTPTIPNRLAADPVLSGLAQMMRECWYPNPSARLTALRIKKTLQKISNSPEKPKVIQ
T4 sequence (Q02750 whole entry): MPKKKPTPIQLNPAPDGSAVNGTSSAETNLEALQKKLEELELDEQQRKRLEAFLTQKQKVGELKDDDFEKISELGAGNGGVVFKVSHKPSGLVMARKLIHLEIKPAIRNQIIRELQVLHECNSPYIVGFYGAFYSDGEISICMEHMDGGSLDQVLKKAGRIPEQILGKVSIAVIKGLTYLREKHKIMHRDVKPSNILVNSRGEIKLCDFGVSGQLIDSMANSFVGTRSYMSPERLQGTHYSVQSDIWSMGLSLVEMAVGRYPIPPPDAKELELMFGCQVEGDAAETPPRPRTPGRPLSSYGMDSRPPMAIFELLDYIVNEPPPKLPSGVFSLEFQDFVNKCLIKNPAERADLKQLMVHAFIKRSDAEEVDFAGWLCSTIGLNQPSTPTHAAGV
T5 sequence (P37023 22-503 Q201D): as the sequence (P37023 22-503) above, with Q180D counted along it

Turning to `CC(=O)C1=C(O)C=C2Oc3c(C(N)=O)c(O)cc(O)c3[C@]2(C)C1=O` [cercosporamide, Cercosporamide], the negative logarithm of the IC50 (pIC50) was 6.44 on BMPR1A (ALK3), 6.22 at ACV-R1 (ALK2), 5.48 against ACV-RL1 (ALK1) and 5.39 against MEK (MEK1 wt). In assay [1], the “MEK and tyrosine kinase ALK less sensitive than the ALK serine/threonine kinases” value is recorded as 7- to 67 fold. Besides, the “effect on BMP2-induced BRE-luc activity” value in assay [2] is recorded as “inhibited the BMP2-induced response in a dose-dependent manner”. Further, on caALK1, the “effect on caALK1-induced SMAD1/5 phosphorylation” value is listed as “inhibited SMAD1/5 phosphorylation”.
